These results are taken from publication PMC5113906, “Ligand autoradiographical quantification of histamine H3 receptor in human dementia with Lewy bodies” (Pharmacological Research, 2016).

For this assay, the target named is T1, histamine H3 receptor (hH3R 445) (Homo sapiens, UniProt Q9Y5N1).
T1 construct: gene HRH3; hH3 445 isoform (also hH3 365), transiently expressed in HEK293 cells
In words: [3H]GSK189254 saturation radioligand binding; autoradiography on human brain sections.

Molecules are shown by their SMILES.

T1 sequence (Q9Y5N1 whole entry, canonical isoform): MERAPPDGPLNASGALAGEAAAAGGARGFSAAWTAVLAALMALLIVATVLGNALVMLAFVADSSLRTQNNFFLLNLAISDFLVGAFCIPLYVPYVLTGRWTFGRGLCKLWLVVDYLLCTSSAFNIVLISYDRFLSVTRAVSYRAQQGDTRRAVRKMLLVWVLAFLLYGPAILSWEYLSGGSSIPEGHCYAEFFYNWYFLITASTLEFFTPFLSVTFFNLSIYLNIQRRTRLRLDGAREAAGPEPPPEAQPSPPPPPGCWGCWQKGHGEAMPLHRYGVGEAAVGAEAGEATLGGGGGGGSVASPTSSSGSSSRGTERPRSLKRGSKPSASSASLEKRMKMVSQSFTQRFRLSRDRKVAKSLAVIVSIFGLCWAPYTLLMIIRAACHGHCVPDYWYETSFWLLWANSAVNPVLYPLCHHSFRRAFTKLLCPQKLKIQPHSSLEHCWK

`CNC(=O)c1ccc(Oc2ccc3c(c2)CCN(C2CCC2)CC3)nc1` [GSK189254] showed a dissociation constant (Kd) of 0.16 ± 0.04 nM.

One may read the Kd as the constant that tells how readily two partners part at equilibrium. Low readings indicate higher affinity, high ones lower affinity.
